{"source": "patent US7803374B2", "about": "“Targeted atherosclerosis treatment” (Barnes-Jewish Hospital, priority 2004, dated 2010)", "molecules": {"B1": {"name": "endostatin: anti-angiogenic agent (protein, UniProt P39060 1572-1754, looked up)", "Endostatin": "HSHRDFQPVLHLVALNSPLSGGMRGIRGADFQCFQQARAVGLAGTFRAFLSSRLQDLYSIVRRADRAAVPIVNLKDELLFPSWEALFSGSEGPLKPGARIFSFDGKDVLRHPTWPQKSVWHGSDPNGRRLTESYCETWRTEAPSATGQASSLLGGRLLGQSAASCHHAYIVLCIENSFMTASK", "modifications": "Endostatin", "notes": "anti-angiogenic agent"}}, "key": {"[1]": {"settings": "high dose; cited from earlier work"}, "Apo E−/− mice": {"tested_on": "Apo E−/− mice", "settings": "cited from earlier work; for foam cell deposition or fibromuscular lesion development: early atherogenesis; for effectiveness in later treatment: later periods of treatment (32 to 48 weeks)"}, "[2]": {"experiment": "In vitro dissolution: release of fumagillin from nanoparticles by dialysis", "format": "physicochemical", "settings": "generally, due to hydrophobic nature", "method": "Fumagillin nanoparticle emulsions (250 μl) were dialyzed in 60,000 MW cutoff dialysis tubing against 3.5 ml of releasing medium (0.9% NaCl, 0.2 mg/ml human serum albumin and 0.05% sodium azide) and continuously agitated at 37° C. The releasing medium was replaced daily and analyzed for released fumagillin concentration. Fumagillin was analyzed by reverse-phase HPLC (Waters Corporation). Chromatography was performed using a Waters Novapak C18, 60 Å, 4 μm reversed-phase column (3.9×150 mm) with an isocratic 50% acetonitrile/0.05% of phosphoric acid mobile phase (1 ml/min at ambient temperature)."}, "[3]": {"settings": "treated for 4 months (20 to 36 weeks)"}}, "note": "Read-outs that look alike come from different tables or passages of the source."}
{"molecule": "CO[C@@H]1[C@H](OC(=O)NC(=O)CCl)CC[C@]2(CO2)[C@H]1[C@@]1(C)O[C@@H]1CC=C(C)C", "note": "[TNP-470]", "values": [{"measurement": "side effects", "setting": "[1]", "value": "serious side effects such as neurocognitive toxicity"}, {"measurement": "intimal vessels and atheroma expansion", "setting": "Apo E−/− mice; 30 mg per kg every other day for 13 weeks", "value": "reduction in intimal vessels and diminished atheroma expansion"}, {"measurement": "foam cell deposition or fibromuscular lesion development", "setting": "Apo E−/− mice", "value": "Neither endostatin nor TNP-470 altered"}, {"measurement": "effectiveness in later treatment", "setting": "Apo E−/− mice", "value": "less effective"}, {"measurement": "intimal vessels and atheroma expansion", "setting": "Apo E−/− mice; [3]", "value": "reduced number of intimal vessels and diminished atheroma expansion"}]}
{"molecule": "CO[C@@H]1[C@H](OC(=O)/C=C/C=C/C=C/C=C/C(=O)O)CC[C@]2(CO2)[C@H]1[C@@]1(C)O[C@@H]1CC=C(C)C", "note": "[fumagillin]", "values": [{"measurement": "fumagillin released (general statement)", "setting": "[2]", "value": "< 10", "unit": "%"}]}
{"molecule": "B1", "values": [{"measurement": "foam cell deposition or fibromuscular lesion development", "setting": "Apo E−/− mice", "value": "Neither endostatin nor TNP-470 altered"}, {"measurement": "effectiveness in later treatment", "setting": "Apo E−/− mice", "value": "less effective"}, {"measurement": "intimal vessels and atheroma expansion", "setting": "Apo E−/− mice; [3]", "value": "reduced number of intimal vessels and diminished atheroma expansion"}]}
